Test results: patent US9040459B2, “Herbicidal compositions comprising aminopyralid and propanil” (Dow AgroSciences, LLC., priority 2012, dated 2015)

Key:
Test in all cases: Postemergence herbicidal activity under field conditions, visual weed control
Assay type in all cases: in vivo
Details in all cases: post-emergence field trial
[1] = test system: Cyperus iria L. (rice flatsedge, CYPIR)
Experimental: (§1) These trials were conducted under field conditions in Espinal, Colombia. Trial sites were located in commercially grown fields of common rice (Oryza sativa). The rice crop was grown using normal cultural practices for fertilization, seeding, and maintenance to ensure good growth of the crop and the weeds. The trials were conducted using normal research methodology. Trial plots were 2 meters (m) wide by 5 m long. All treatments were applied using a randomized complete block trial design with 4 replications per treatment. The trial sites had naturally occurring populations of weeds. The weed spectrum included, but was not limited to, Cyperus iria L. (rice flatsedge, CYPIR), Digitaria horizontalis (Jamaican crabgrass, DIGHO), Eleusine indica L. Gaertn. (goosegrass, ELEIN), Portulaca oleracea L. (common purslane, POROL) and Phyllanthus niruri L. (gripeweed, PYLNI). The plots were treated with a postemergence foliar application 15 to 20 days after emergence of the rice.
(§2) Treatments consisted of tank mixes of aminopyralid triisopropanolammonium salt (MILESTONE 240SL) and a commercially available formulation of propanil herbicide (STAM 480EC). The application volume was 200 liters per hectare (L/ha) of water. All applications were made using precision gas hand sprayers with a 3 m boom using flat fan 8002 nozzles to broadcast the treatments over the top of the rice and weeds.
(§3) The treated plots and control plots were rated blind at various intervals after application. Ratings were based on Percent (%) Visual weed control, where 0 corresponds to no injury and 100 corresponds to complete kill.
(§4) Colby's equation was used to determine the herbicidal effects expected from the mixtures (Colby, S. R. Calculation of the synergistic and antagonistic response of herbicide combinations. Weeds 1967 15, 20-22).
(§5) The following equation was used to calculate the expected activity of mixtures containing two active ingredients, A and B: Expected=A+B−(A×B/100)
(§6) A=observed efficacy of active ingredient A at the same concentration as used in the mixture;
(§7) B=observed efficacy of active ingredient B at the same concentration as used in the mixture.

[2] = test system: Digitaria horizontalis (Jamaican crabgrass, DIGHO)
Experimental: as §1, §2, §3, §4, §5, §6, §7

[3] = test system: Portulaca oleracea L. (common purslane, POROL)
Experimental: as §1, §2, §3, §4, §5, §6, §7

[4] = test system: Phyllanthus niruri L. (gripeweed, PYLNI)
Experimental: as §1, §2, §3, §4, §5, §6, §7

[5] = test system: Eleusine indica L. Gaertn. (goosegrass, ELEIN)
Experimental: as §1, §2, §3, §4, §5, §6, §7

Nc1cc(Cl)nc(C(=O)O)c1Cl [Aminopyralid, 4-amino-3,6-dichloro-2-pyridinecarboxylic acid]
Visual Weed Control (%) CYPIR 15 DAA Obs ([1]; aminopyralid 4 g ae/ha alone): 4.5% | Visual Weed Control (%) CYPIR 32 DAA Obs ([1]; aminopyralid 4 g ae/ha alone): 0% | Visual Weed Control (%) CYPIR 32 DAA Obs ([1]; aminopyralid 8 g ae/ha alone): 10% | Visual Weed Control (%) CYPIR 15 DAA Obs ([1]; aminopyralid 16 g ae/ha alone): 15% | Visual Weed Control (%) CYPIR 32 DAA Obs ([1]; aminopyralid 16 g ae/ha alone): 10% | Visual Weed Control (%) DIGHO 8 DAA Obs ([2]; aminopyralid 8 g ae/ha alone): 0% | Visual Weed Control (%) DIGHO 8 DAA Obs ([2]; aminopyralid 16 g ae/ha alone): 0% | Visual Weed Control (%) POROL 8 DAA Obs ([3]; aminopyralid 4 g ae/ha alone): 36% | Visual Weed Control (%) POROL 8 DAA Obs ([3]; aminopyralid 8 g ae/ha alone): 68% | Visual Weed Control (%) POROL 8 DAA Obs ([3]; aminopyralid 16 g ae/ha alone): 93% | Visual Weed Control (%) PYLNI 8 DAA Obs ([4]; aminopyralid 4 g ae/ha alone): 0% | Visual Weed Control (%) PYLNI 8 DAA Obs ([4]; aminopyralid 8 g ae/ha alone): 3% | Visual Weed Control (%) PYLNI 8 DAA Obs ([4]; aminopyralid 16 g ae/ha alone): 3% | Visual Weed Control (%) ELEIN 8 DAA Obs ([5]; aminopyralid 4 g ae/ha alone): 0% | Visual Weed Control (%) ELEIN 8 DAA Obs ([5]; aminopyralid 8 g ae/ha alone): 0% | Visual Weed Control (%) ELEIN 8 DAA Obs ([5]; aminopyralid 16 g ae/ha alone): 0%

CCC(=O)Nc1ccc(Cl)c(Cl)c1 [Propanil, N-(3,4-dichloro-phenyl)propanamide]
Visual Weed Control (%) CYPIR 15 DAA Obs ([1]; propanil 480 g ai/ha alone): 35% | Visual Weed Control (%) CYPIR 32 DAA Obs ([1]; propanil 480 g ai/ha alone): 20% | Visual Weed Control (%) CYPIR 32 DAA Obs ([1]; propanil 960 g ai/ha alone): 58% | Visual Weed Control (%) DIGHO 8 DAA Obs ([2]; propanil 480 g ai/ha alone): 51% | Visual Weed Control (%) POROL 8 DAA Obs ([3]; propanil 480 g ai/ha alone): 49% | Visual Weed Control (%) PYLNI 8 DAA Obs ([4]; propanil 480 g ai/ha alone): 45% | Visual Weed Control (%) ELEIN 8 DAA Obs ([5]; propanil 480 g ai/ha alone): 48%
